How the values were obtained:
[1] = system: IgE antibodies in sera from birch pollen allergic patients; assay: ELISA detection of peptide- and rBet v 1-specific IgE antibodies; type: binding, human
Procedure: Birch pollen allergic patients suffering from allergic rhinoconjunctivitis and/or asthma to birch pollen and related allergens were selected according to case history indicative for seasonal birch pollinosis and characterized by skin prick testing with birch pollen extract and serological CAP RAST (Pharmacia Diagnostics, Uppsala, Sweden) testing. Total IgE levels in the sera were determined by CAP RIST measurements (Pharmacia). […] Sera from 60 birch pollen allergic patients and a non-atopic individual were used for IgE competition studies. The birch pollen allergic patients group consisted of 25 males and 35 females with a mean age of 37 years (ranging from 19-60 years) (Table 2).
Subsequently, plates were incubated with 1:3 diluted sera from 60 birch pollen allergic patients and from a non-atopic individual overnight at 4° C. Bound IgE antibodies were detected with a 1:1000 diluted alkaline-phosphatase-coupled mouse monoclonal anti-human IgE antibody (Pharmingen, San Diego, Calif.).

[2] = system: birch pollen allergic patients; assay: Skin prick testing of allergic patients; type: in vivo, human
Procedure: SPTs were performed on the individuals forearms as described ([…]. et al. (1997) J. Clin Invest. 99, 1673-168; Dreborg S: (1989) J. Am. Acad. DerMatol. 21, 820-821). […] In addition standardized skin prick solutions (birch pollen extract and histamine) (Allergopharma, Reinbek, Germany) were tested. Reactions were recorded 20 minutes after SPT by photography and by transferring the ballpoint pen-surrounded wheal area with a scotch tape to paper.

DGGSILKISNKYHTKGDHEVKAEQVKASKEC [Peptide P4, Bet v 1-derived synthetic peptide, position aa 110-139, one cysteine added]
IgE (OD) ([1]; serum of NHS, non-allergic control individual): — (Dashes indicate reactivities below the cut-off level (OD=0.050))
IgE (OD) ([1]; serum of patient 1): — (Dashes indicate reactivities below the cut-off level (OD=0.050))
IgE (OD) ([1]; serum of patient 2): — (Dashes indicate reactivities below the cut-off level (OD=0.050))
IgE (OD) ([1]; serum of patient 3): — (Dashes indicate reactivities below the cut-off level (OD=0.050))
IgE (OD) ([1]; serum of patient 4): — (Dashes indicate reactivities below the cut-off level (OD=0.050))
IgE (OD) ([1]; serum of patient 5): — (Dashes indicate reactivities below the cut-off level (OD=0.050))
IgE (OD) ([1]; serum of patient 6): — (Dashes indicate reactivities below the cut-off level (OD=0.050))
IgE (OD) ([1]; serum of patient 7): — (Dashes indicate reactivities below the cut-off level (OD=0.050))
IgE (OD) ([1]; serum of patient 8): — (Dashes indicate reactivities below the cut-off level (OD=0.050))
IgE (OD) ([1]; serum of patient 9): — (Dashes indicate reactivities below the cut-off level (OD=0.050))
IgE (OD) ([1]; serum of patient 10): — (Dashes indicate reactivities below the cut-off level (OD=0.050))
IgE (OD) ([1]; serum of patient 11): — (Dashes indicate reactivities below the cut-off level (OD=0.050))
IgE (OD) ([1]; serum of patient 12): — (Dashes indicate reactivities below the cut-off level (OD=0.050))
IgE (OD) ([1]; serum of patient 13): — (Dashes indicate reactivities below the cut-off level (OD=0.050))
IgE (OD) ([1]; serum of patient 14): — (Dashes indicate reactivities below the cut-off level (OD=0.050))
IgE (OD) ([1]; serum of patient 15): — (Dashes indicate reactivities below the cut-off level (OD=0.050))
IgE (OD) ([1]; serum of patient 16): — (Dashes indicate reactivities below the cut-off level (OD=0.050))
IgE (OD) ([1]; serum of patient 17): — (Dashes indicate reactivities below the cut-off level (OD=0.050))
IgE (OD) ([1]; serum of patient 18): — (Dashes indicate reactivities below the cut-off level (OD=0.050))
IgE (OD) ([1]; serum of patient 19): — (Dashes indicate reactivities below the cut-off level (OD=0.050))
IgE (OD) ([1]; serum of patient 20): — (Dashes indicate reactivities below the cut-off level (OD=0.050))
IgE (OD) ([1]; serum of patient 21): — (Dashes indicate reactivities below the cut-off level (OD=0.050))
IgE (OD) ([1]; serum of patient 22): — (Dashes indicate reactivities below the cut-off level (OD=0.050))
IgE (OD) ([1]; serum of patient 23): — (Dashes indicate reactivities below the cut-off level (OD=0.050))
IgE (OD) ([1]; serum of patient 24): — (Dashes indicate reactivities below the cut-off level (OD=0.050))
IgE (OD) ([1]; serum of patient 25): — (Dashes indicate reactivities below the cut-off level (OD=0.050))
IgE (OD) ([1]; serum of patient 26): — (Dashes indicate reactivities below the cut-off level (OD=0.050))
IgE (OD) ([1]; serum of patient 27): — (Dashes indicate reactivities below the cut-off level (OD=0.050))
IgE (OD) ([1]; serum of patient 28): — (Dashes indicate reactivities below the cut-off level (OD=0.050))
IgE (OD) ([1]; serum of patient 29): — (Dashes indicate reactivities below the cut-off level (OD=0.050))
IgE (OD) ([1]; serum of patient 30): — (Dashes indicate reactivities below the cut-off level (OD=0.050))
IgE (OD) ([1]; serum of patient 31): — (Dashes indicate reactivities below the cut-off level (OD=0.050))
IgE (OD) ([1]; serum of patient 32): — (Dashes indicate reactivities below the cut-off level (OD=0.050))
IgE (OD) ([1]; serum of patient 33): — (Dashes indicate reactivities below the cut-off level (OD=0.050))
IgE (OD) ([1]; serum of patient 34): — (Dashes indicate reactivities below the cut-off level (OD=0.050))
IgE (OD) ([1]; serum of patient 35): — (Dashes indicate reactivities below the cut-off level (OD=0.050))
IgE (OD) ([1]; serum of patient 36): — (Dashes indicate reactivities below the cut-off level (OD=0.050))
IgE (OD) ([1]; serum of patient 37): — (Dashes indicate reactivities below the cut-off level (OD=0.050))
IgE (OD) ([1]; serum of patient 38): — (Dashes indicate reactivities below the cut-off level (OD=0.050))
IgE (OD) ([1]; serum of patient 39): — (Dashes indicate reactivities below the cut-off level (OD=0.050))
IgE (OD) ([1]; serum of patient 40): — (Dashes indicate reactivities below the cut-off level (OD=0.050))
IgE (OD) ([1]; serum of patient 41): — (Dashes indicate reactivities below the cut-off level (OD=0.050))
IgE (OD) ([1]; serum of patient 42): — (Dashes indicate reactivities below the cut-off level (OD=0.050))
IgE (OD) ([1]; serum of patient 43): — (Dashes indicate reactivities below the cut-off level (OD=0.050))
IgE (OD) ([1]; serum of patient 44): — (Dashes indicate reactivities below the cut-off level (OD=0.050))
IgE (OD) ([1]; serum of patient 45): — (Dashes indicate reactivities below the cut-off level (OD=0.050))
IgE (OD) ([1]; serum of patient 46): — (Dashes indicate reactivities below the cut-off level (OD=0.050))
IgE (OD) ([1]; serum of patient 47): — (Dashes indicate reactivities below the cut-off level (OD=0.050))
IgE (OD) ([1]; serum of patient 48): — (Dashes indicate reactivities below the cut-off level (OD=0.050))
IgE (OD) ([1]; serum of patient 49): — (Dashes indicate reactivities below the cut-off level (OD=0.050))
IgE (OD) ([1]; serum of patient 50): — (Dashes indicate reactivities below the cut-off level (OD=0.050))
IgE (OD) ([1]; serum of patient 51): — (Dashes indicate reactivities below the cut-off level (OD=0.050))
IgE (OD) ([1]; serum of patient 52): — (Dashes indicate reactivities below the cut-off level (OD=0.050))
IgE (OD) ([1]; serum of patient 53): — (Dashes indicate reactivities below the cut-off level (OD=0.050))
IgE (OD) ([1]; serum of patient 54): — (Dashes indicate reactivities below the cut-off level (OD=0.050))
IgE (OD) ([1]; serum of patient 55): — (Dashes indicate reactivities below the cut-off level (OD=0.050))
IgE (OD) ([1]; serum of patient 56): — (Dashes indicate reactivities below the cut-off level (OD=0.050))
IgE (OD) ([1]; serum of patient 57): — (Dashes indicate reactivities below the cut-off level (OD=0.050))
IgE (OD) ([1]; serum of patient 58): — (Dashes indicate reactivities below the cut-off level (OD=0.050))
IgE (OD) ([1]; serum of patient 59): — (Dashes indicate reactivities below the cut-off level (OD=0.050))
IgE (OD) ([1]; serum of patient 60): — (Dashes indicate reactivities below the cut-off level (OD=0.050))
mean wheal diameter ([2]; individual 1, 100 μg/ml): 0 mm
mean wheal diameter ([2]; individual 2, 100 μg/ml): 0 mm
mean wheal diameter ([2]; individual 3, 100 μg/ml): 0 mm
mean wheal diameter ([2]; individual 4, 100 μg/ml): 0 mm
mean wheal diameter ([2]; individual 5, 100 μg/ml): 0 mm
mean wheal diameter ([2]; individual 6 (allergic, without birch pollen allergy), 100 μg/ml): 0 mm

NCCc1c[nH]cn1 [histamine, reference compound]
mean wheal diameter ([2]; individual 1, standardized skin prick solution): 5 mm
mean wheal diameter ([2]; individual 2, standardized skin prick solution): 6 mm
mean wheal diameter ([2]; individual 3, standardized skin prick solution): 7 mm
mean wheal diameter ([2]; individual 4, standardized skin prick solution): 5 mm
mean wheal diameter ([2]; individual 5, standardized skin prick solution): 5.5 mm
mean wheal diameter ([2]; individual 6 (without birch pollen allergy), standardized skin prick solution): 4 mm
immediate skin reaction ([2]; standardized skin prick solutions): All individuals reacted
